Test results published in US5306808A, “Peptide derivatives having vasodilating activity” (Takeda Chemical Industries, Ltd., priority 1991, dated 1994).
Where a SMILES comes first, the peptide text is derived from it. Bridges are numbered along the chain shown (N, C = ends). Where no end group is shown, it is not given here.

Columns and labels:
[1] = tested on: porcine coronary smooth muscles (constriction due to endothelin-1); test: Assay of constriction suppressing activity to porcine coronary smooth muscles; type: cell-based; conditions: Sample: constriction due to 10^-9 M ET-1 in the presence of 10^-5 sample; Control: constriction due to 10^-9 M ET-1; formula shown only as drawing 9
Experimental: Its tension was detected by a force displacement transducer UL-10GR (Minebea), and recorded by a polygraph (NEC Sanei). […] A tension of 1.25 to 1.5 g was applied to each of the strips, followed by equilibration for 1.5 hours. 60 mM KCl was repeatedly applied thereto at intervals of 30 minutes until the constriction response became constant. After additional equilibration for 1.5 hours, a sample for assay was given. The constriction of the strips was normalized by the constriction response of the individual strips to 60 mM KCl and statistically processed.

[2] = tested on: endothelin receptor; test: Assay of affinity for receptor (I125-ET-1 binding to porcine myocardial membrane fraction); conditions: ET-1 = 100
Experimental: A membrane fraction prepared from the porcine heart was diluted to 0.15 mg/ml by using a buffer solution [PBS (pH 7.4) containing 0.5 mM CaCl2, 1.0 mM MgCl2, 0.02% NaN3, 0.1% BSA (fraction V, Sigma), 0.1 mM PMSF and 0.1 μg/ml pepstatin (binding buffer)] for assay, and 100 μl of the resulting suspension of the membrane fraction was poured into each assay tube to use for assay. To this suspension of the membrane fraction were added 2 μl of an endothelin-1 solution labeled with 5 μM radioactive iodine. Further, 3 μl of a test peptide solution was added thereto, followed by maintenance at a temperature of 25° C. for 1 hour. Then, the resulting suspension was diluted with 900 μl of the buffer solution for assay cooled with ice, and thereafter separated into a supernatant and a precipitate by centrifugation at 12,000×g for 10 minutes. Cell membranes and an endothelin receptor embedded therein were contained in the precipitate, and radioactive iodine-labeled endothelin combined with the receptor was also recovered in the precipitate. Accordingly, the amount of radioactive iodine-labeled endothelin combined with the endothelin receptor was determined by measuring the amount of radioactive iodine contained in the precipitate with a gamma-ray counter. Compounds in which the affinity for the endothelin receptor is high and the maximum constriction is not high are antagonists. Contrary to this, compounds in which the affinity for the endothelin receptor is high and the maximum constriction is high are agonists.

[3] = tested on: porcine coronary artery; type: cell-based; conditions: for Constrictor activity (Relative potency): ET-1 = 100; for Maximum Constriction (% 60 mM KCl): normalized to constriction response to 60 mM KCl
Experimental: Each of helical strips 2 mm×15 mm prepared from the coronary right ramus circumflexus from which the adventitial connective tissues and the endothelial cells were removed was set to each of 4 ml organ baths. Its tension was detected by a force displacement transducer UL-10GR (Minebea), and recorded by a polygraph (NEC Sanei). The organ baths were maintained at 37° C., and filled with a Krebs-Henseleit solution (composition:118 mM NaCl, 4.7 mM KCl, 2.5 mM CaCl2, 1.2 mM KH2 PO4, 25.0 mM NaHCO3, 1.2 mM MgSO4, 10.0 mM glucose) gassed with 95% O2 and 5% CO2.
A tension of 1.25 to 1.5 g was applied to each of the strips, followed by equilibration for 1.5 hours. 60 mM KCl was repeatedly applied thereto at intervals of 30 minutes until the constriction response became constant. After additional equilibration for 1.5 hours, a sample for assay was given. The constriction of the strips was normalized by the constriction response of the individual strips to 60 mM KCl and statistically processed.
(2) As to the antagonist property or the agonist property of the peptide derivatives of present invention to endothelin, the affinity for an endothelin receptor and the constrictor activity to porcine coronary smooth muscles (according to the method described in (1) described above) were assayed. The affinity for the receptor was assayed by the following method.

Molecule	Suppressing activity to ET-1 [1]	Receptor binding activity (Relative potency) [2]	Constrictor activity (Relative potency) [3]	Maximum Constriction (% 60 mM KCl) [3]
CC[C@H](C)[C@H](NC(=O)[C@H](CC(=O)O)NC(=O)[C@H](CC(C)C)NC(=O)[C@H](Cc1c[nH]cn1)NC(=O)[C@@H]1CSSC[C@H](N)C(=O)N[C@@H](CO)C(=O)N[C@@H](Cc2ccccc2)C(=O)N[C@@H](CO)C(=O)N[C@@H](CO)C(=O)N[C@@H](CC(C)C)C(=O)N[C@@H](CCSC)C(=O)N[C@@H](CC(=O)O)C(=O)N[C@@H](CCCCN)C(=O)N[C@@H](CCC(=O)O)C(=O)N[C@@H](Cc2ccccc2)C(=O)N[C@@H](C(C)C)C(=O)N[C@@H](Cc2ccc(O)cc2)C(=O)N[C@@H](Cc2ccccc2)C(=O)N1)C(=O)N[C@H](C(=O)N[C@@H](Cc1c[nH]c2ccccc12)C(=O)O)[C@@H](C)CC [Example 1, [Phe^3,11]-ET-1] (H-CSFSSLMDKEFVYFCHLDIIW-OH; disulfide 1-15)	77	0.45	< 0.3	9 % 60 mM KCl
CC[C@H](C)[C@H](NC(=O)[C@H](CC(=O)O)NC(=O)[C@H](CC(C)C)NC(=O)[C@H](Cc1c[nH]cn1)NC(=O)[C@@H]1CSSC[C@H](N)C(=O)N[C@@H](CO)C(=O)N[C@@H](Cc2ccccc2)C(=O)N[C@@H](CO)C(=O)N[C@@H](CO)C(=O)N[C@@H](CC(C)C)C(=O)N[C@@H](CCSC)C(=O)N[C@@H](CC(=O)O)C(=O)N[C@@H](CCCCN)C(=O)N[C@@H](CCC(=O)O)C(=O)N[C@@H](C)C(=O)N[C@@H](C(C)C)C(=O)N[C@@H](Cc2ccc(O)cc2)C(=O)N[C@@H](Cc2ccccc2)C(=O)N1)C(=O)N[C@H](C(=O)N[C@@H](Cc1c[nH]c2ccccc12)C(=O)O)[C@@H](C)CC [Example 2, [Phe^3, Ala^11]-ET-1] (H-CSFSSLMDKEAVYFCHLDIIW-OH; disulfide 1-15)	87	0.5	< 0.1	10 % 60 mM KCl
CC[C@H](C)[C@H](NC(=O)[C@H](CC(=O)O)NC(=O)[C@H](CC(C)C)NC(=O)[C@H](Cc1c[nH]cn1)NC(=O)[C@@H]1CSSC[C@H](N)C(=O)N[C@@H](CO)C(=O)N[C@@H](C)C(=O)N[C@@H](CO)C(=O)N[C@@H](CO)C(=O)N[C@@H](CC(C)C)C(=O)N[C@@H](CCSC)C(=O)N[C@@H](CC(=O)O)C(=O)N[C@@H](CCCCN)C(=O)N[C@@H](CCC(=O)O)C(=O)N[C@@H](Cc2ccccc2)C(=O)N[C@@H](C(C)C)C(=O)N[C@@H](Cc2ccc(O)cc2)C(=O)N[C@@H](Cc2ccccc2)C(=O)N1)C(=O)N[C@H](C(=O)N[C@@H](Cc1c[nH]c2ccccc12)C(=O)O)[C@@H](C)CC [Example 3, [Ala^3, Phe^11]-ET-1] (H-CSASSLMDKEFVYFCHLDIIW-OH; disulfide 1-15)	56	0.1	< 0.1	10 % 60 mM KCl
CC[C@H](C)[C@H](NC(=O)[C@@H](NC(=O)[C@H](CC(C)C)NC(=O)[C@H](Cc1c[nH]cn1)NC(=O)[C@@H]1CSSC[C@H](N)C(=O)N[C@@H](CO)C(=O)N[C@H]2CSSC[C@H](NC(=O)[C@H](CCC(=O)O)NC(=O)[C@H](CCCCN)NC(=O)[C@H](CC(=O)O)NC(=O)[C@H](CCSC)NC(=O)[C@H](CC(C)C)NC(=O)[C@H](CO)NC(=O)[C@H](CO)NC2=O)C(=O)N[C@@H](C(C)C)C(=O)N[C@@H](Cc2ccc(O)cc2)C(=O)N[C@@H](Cc2ccccc2)C(=O)N1)[C@@H](C)O)C(=O)N[C@H](C(=O)N[C@@H](Cc1c[nH]c2ccccc12)C(=O)O)[C@@H](C)CC [Example 51, [Thr^18]-ET-1] (H-CSCSSLMDKECVYFCHLTIIW-OH; disulfide 1-15, 3-11)		100	26	76 % 60 mM KCl
CC[C@H](C)[C@H](NC(=O)[C@H](CC(=O)O)NC(=O)[C@H](CC(C)C)NC(=O)[C@H](Cc1c[nH]cn1)NC(=O)[C@@H]1CSSC[C@H](N)C(=O)N[C@@H](CO)C(=O)N[C@@H](CC(C)C)C(=O)N[C@@H](CO)C(=O)N[C@@H](CO)C(=O)N[C@@H](CC(C)C)C(=O)N[C@@H](CCSC)C(=O)N[C@@H](CC(=O)O)C(=O)N[C@@H](CCCCN)C(=O)N[C@@H](CCC(=O)O)C(=O)N[C@@H](C)C(=O)N[C@@H](C(C)C)C(=O)N[C@@H](Cc2ccc(O)cc2)C(=O)N[C@@H](Cc2ccccc2)C(=O)N1)C(=O)N[C@H](C(=O)N[C@@H](Cc1c[nH]c2ccccc12)C(=O)O)[C@@H](C)CC [Example 52, [Leu^3, Ala^11]-ET-1] (H-CSLSSLMDKEAVYFCHLDIIW-OH; disulfide 1-15)		0.35	< 0.1	6 % 60 mM KCl
[Asn^18 ]-ET-1 (CSCSSLMDKECVYFCHLNIIW; ends and bridges not checked; cysteine pairing not given here; UniProt P05305 53-73, looked up, variant D18N) [Example 35]		9.1	< 0.1	43 % 60 mM KCl
[Trp^3,11 ]-ET-1 (CSWSSLMDKEWVYFCHLDIIW; ends and bridges not checked; cysteine pairing not given here; UniProt P05305 53-73, looked up, variant C3W C11W) [Example 4]		0.27	< 0.1	10 % 60 mM KCl
[Val^3,Ala^11 ]-ET-1 (CSVSSLMDKEAVYFCHLDIIW; ends and bridges not checked; cysteine pairing not given here; UniProt P05305 53-73, looked up, variant C3V C11A) [Example 41]		4.5	73	130 % 60 mM KCl
